{
  "source": "patent US20070254847A1",
  "about": "“Pharmaceutical Composition Containing Steroidal Saponins, the Preparation Method and Use Thereof” (priority 2004, published 2007)",
  "system": "acute myocardial infarction in rats",
  "experiment": "Effect on acute myocardial infarction in rats (ligation of left anterior descending coronary artery)",
  "assay_type": "in vivo, Wistar rats",
  "protocol": "Test 1 Effect of Pseudoprotogracillin (□) on Acute Myocardial Infarction in Rats:\nPseudoprotogracillin (□) obtained in example 4 was applied in relevant pharmacological tests as follows:\nWistar rats, each weighing 180˜220 g, were randomized into 3 groups, namely control group, pseudoprotogracillin group of high dose and pseudoprotogracillin group of low dose, each of which had 12 rats. The rats in the control group were administered by gastric infusion of distilled water. The other rats in test groups were administered by gastric infusion of the relevant medicinal liquid (prepared with distilled water), according to the high dose (3 mg/kg) or low dose (1.5 mg/kg) listed in following table for each group, respectively. Infusion was performed once a day and continued for one week. 1 hour after last administration, urethane of 1 g/kg was given to the rats for abdominal anesthesia. The animal was fixed on its back and its skin was cut open along the midline of its sternum, along the left edge of which an incision was made for the heart to be squzeezed out quickly. Ligation was immediately made at the root of the left anterior descending branch of its coronary artery before putting the heart back into its thorax, which was then closed by suture and spontaneous breathing was restored. The test was ended 3 hours after ligation and the heart was sliced transversely below the line of ligation. 5 slices were blue-stained with nitrotetrazolium and an multiple color pathological analyzer (MPIAS-500) was applied to measure the areas of normal myocardium and infarct myocardium at a fixed imaging distance and to observe the degree of myocardial infarction.",
  "key": {"[1]": {"conditions": "High dose 3 mg/kg, gastric infusion once a day for one week, 3 hours after ligation, X ± s"}, "[2]": {"conditions": "Low dose 1.5 mg/kg, gastric infusion once a day for one week, 3 hours after ligation, X ± s"}},
  "note": "Marks after values point to notes of the source that are not given here.",
  "data": [
    {"substance": "26-0-β-D-glucopyranosyl-3β, 26 glyco-25 (R)-Δ^5,20(22)-diene-furo-3-O-[α-L-Rhamnop yranosyl(1→2)]-[β-D-glucopyranosyl(1→3)]-β-D-glucopyranoside [pseudoprotogracillin (II)]", "values": [
      {"measurement": "Percentage of infarct area to the heart", "setting": "[1]", "result": "20.74 ± 1.9", "unit": "%"},
      {"measurement": "Percentage of infarct area to ventricle", "setting": "[1]", "result": "24.5 ± 2.6", "unit": "%"},
      {"measurement": "Weight of infraction", "setting": "[1]", "result": "0.227 ± 0.032", "unit": "g"},
      {"measurement": "Area of infraction", "setting": "[2]", "result": "91.3 ± 11.49* mm^2"},
      {"measurement": "Percentage of infarct area to the heart", "setting": "[2]", "result": "25.2 ± 2.3", "unit": "%"},
      {"measurement": "Percentage of infarct area to ventricle", "setting": "[2]", "result": "28.1 ± 1.9", "unit": "%"},
      {"measurement": "Weight of infraction", "setting": "[2]", "result": "0.241 ± 0.045", "unit": "g"},
      {"measurement": "Action on myocardium (in words)", "setting": "high and low dose vs control group", "result": "obvious action to protect myocardium"}
    ]}
  ]
}
